Key:
Assay in all cases: inhibition of MMP and meprin peptide cleavage – biochemical, QFRET, MMP1/2/8/9/10/13/14, Meprin A/B, selectivity assay for ADAM10 and ADAM17 inhibitor project, late-stage follow-up (AID 743473)
MMP2 = settings: MCA fluorescence, metalloprotease panel
MMP10 = settings: MCA fluorescence, metalloprotease panel
[1] = biological target: Collagenase 3 (Homo sapiens) (UniProt P45452); settings: MCA fluorescence, metalloprotease panel, MMP13
Meprin A = settings: MCA fluorescence, metalloprotease panel
MMP8 = settings: MCA fluorescence, metalloprotease panel
MMP14 = settings: MCA fluorescence, metalloprotease panel
Meprin B = settings: MCA fluorescence, metalloprotease panel
MMP9 = settings: MCA fluorescence, metalloprotease panel
MMP1 = settings: MCA fluorescence, metalloprotease panel

| Compound | IC50 (MMP2) | IC50 (MMP10) | IC50 [1] | IC50 (Meprin A) | IC50 (MMP8) | IC50 (MMP14) | IC50 (Meprin B) | IC50 (MMP9) | IC50 (MMP1) |
| --- | --- | --- | --- | --- | --- | --- | --- | --- | --- |
| O=C1NC(=O)C(Cc2ccc(Cl)cc2)(c2ccccc2)N1 (stereo unspecified) | > 100 µM | > 100 µM | > 100 µM | > 100 µM | 6.4 µM | > 100 µM | > 100 µM | > 100 µM | 18.5 µM |
| O=C(O)CCC(=O)c1c[nH]c2ccccc12 | > 100 µM | > 100 µM | > 100 µM | > 100 µM | > 100 µM | > 100 µM | > 100 µM | > 100 µM | > 100 µM |
| CCOc1ccc(NC(=O)CC2SC(=O)N(c3ccccc3)C2=O)cc1 (stereo unspecified) | 4.7 µM | 28.6 µM | 35.8 µM | > 100 µM | 1.6 µM | 36.9 µM | > 100 µM | 3 µM | 75 µM |
| COc1cccc(C(=O)NNC(=O)C(=O)Nc2ccc(C)c(Cl)c2)c1 | > 100 µM | > 100 µM | > 100 µM | > 100 µM | > 100 µM | > 100 µM | > 100 µM | > 100 µM | > 100 µM |
